Measurements as given in patent publication EP4371556B1, “ANGIOTENSIN(1-7) PHARMACEUTICAL COMPOSITIONS FOR INHALATION” (Explicat Pharma GmbH, priority 2022, dated 2026).

Assay: Phase solubility analysis (Higuchi-Connors plot) with HPβCD
Type: physicochemical
Conditions: different concentrations of HPβCD in isotonic saline solutions
From the text: In an attempt to solubilize the peptide, the effect of cyclodextrins was investigated. In particular, HPβCD, a cyclodextrin presented as preferable in most of the literature described above and used in composition for inhalation by Magalhães et al., was selected for testing. […] The skilled person is familiar with Higuchi-Connors plots and how to obtain them, as described, e.g., in Higuchi T. and Connors, Advances in Analytical Chemistry and Instrumentation, 1965, 177-212.

## CC[C@H](C)[C@H](NC(=O)[C@H](Cc1ccc(O)cc1)NC(=O)[C@@H](NC(=O)[C@H](CCCNC(=N)N)NC(=O)[C@@H](N)CC(=O)O)C(C)C)C(=O)N[C@@H](Cc1c[nH]cn1)C(=O)N1CCC[C@H]1C(=O)O [AT1-7, Asp-Arg-Val-Tyr-Ile-His-Pro]
  solubilising effect of HPβCD on AT1-7: substantially no solubilising effect
